Laboratory results taken from ChEMBL document CHEMBL1150847, “New lactone-containing metabolites from a marine-derived bacterium of the genus Streptomyces” (J Nat Prod, 2001).
Active and inactive are the calls of the source. The rule behind the calls is not given here.

Test system: Candida albicans
Assay: Antifungal activity against Candida albicans by paper disk method
Type: functional, organism-based

Compound | Activity
CC(=O)C(C)CCCCCC1C=CC(=O)O1 (configuration not stated) | Active
CCCC[C@H]1C(=O)O[C@@H](C)[C@@H]1O | Active
CC(C)CC[C@H]1C(=O)O[C@@H](C)[C@@H]1O | Active
CCC(C)(O)CCCCCC1C=CC(=O)O1 (configuration not stated) | Active
CC(C)CC[C@@H]1C(=O)O[C@@H](C)[C@@H]1O | Active
CCC(C)C[C@H]1C(=O)O[C@@H](C)[C@@H]1O (some centres not stated) | Active
CC(C)(O)CCCCCC1C=CC(=O)O1 (configuration not stated) | Active
